Data reported in patent publication US7232559B1, “Diagnostic agents for pancreatic exocrine function” (Tokyo Gas Company Limited, priority 1999, dated 2007).
Values joined by “and” are separate entries in the source; they are usually repeats but may differ in a detail not shown here. Equal entries are not always repeated. Primed or numbered codes have the meaning given here. 13C‑Gly = glycine labeled with carbon-13 (13C); Bz′ = not defined here

Columns and labels:
[1] = test system: chronic pancreatitis rats and control (normal) rats; test: ^13C-breath test (Δ^13C in exhaled CO2 after oral administration); type: in vivo, rat; conditions: for Δ^13C (‰) (mean) value at 15 minutes after the administration: 420 mg/kg oral; for Δ^13C (‰) value at 30 minutes after the administration (group mean): 30 mg/kg oral
Description: (§1) A model of chronic pancreatitis in rats were prepared by injecting oleic acid into the pancreatic duct (Mundlos et al., Pancreas 1:29 (1986)). After overnight fast, a Wistar male rat of 5 weeks old was anesthetized by intraperitoneal administration of Nembutal (50 mg/kg). The abdominal wall was shaved and the rat was fixed supinely on an operating table. An Isodine solution was applied to sterilize, and a 3 to 4 cm midline incision was made on the abdomen. The duodenum and the pancreas were drawn out and a 25 G needle was pierced through the duodenal wall. A polyethylene cannula (PE-10) was inserted through the pierced hole into the duodenum and further inserted into the common bile duct by about 5 mm from the papilla. The inserted cannula was fixed by a microclip. Further, the biliary duct was closed by a microclip in order to prevent oleic acid from flowing into the liver. Oleic acid (50 μl) was injected at a rate of 20 μl/min by a microsyringe pump. After the injection was completed, the rat was allowed to stand for 2 minutes so that the oleic acid was distributed throughout the pancreas. The microclips and cannula were removed and the duodenum was returned. The endothelium was sutured with silk thread (Nescosuture silk suture thread 3-0, Nihon Shoji KK) and the outer skin was sutured with a skin stapler (Appose ULC, No. 8034-12, 5.7×3.8 mm). As a control, only laparotomy was carried out. These rats subjected to the operation were kept under free intake of standard food and water at 23° C., relative humidity of 55% until use.
The rat of 9 weeks old was fixed without anesthesia in a rat holder for a microwave irradiation apparatus. The breath was collected at a rate of about 100 to 300 ml/min using a stroke pump (Variable Stroke Pump VS-500, Shibata Kagaku Kogyo) and introduced directly to a flow cell of a ^13CO2 analyzer EX-130S (Nihon Bunko). A Perma Pure drier (MD-050-12P, Perma Pure INC.) was set between the rat holder and stroke pump to remove out water vapor in the breath. […]
Output data from the ^13CO2 analyzer were AD converted and put into a personal computer (Apple Power Macintosh 8500). Using a data processing soft ware Lab VIEW (National Instruments), 10 data points at every 100 msec were integrated and averaged in an interval of 5 seconds and converted to ^13C atom %, Δ^13C (‰), and CO2 concentration (%) In this manner, the ^13C breath test was continuously carried out. […] CO2 concentration in the collected breath was held at 3±0.5%.
Δ^13C (‰) was calculated from the ^13C concentration in the exhaled CO2 at each time point (^13C tmin) and the ^13C concentration in standard CO2 (^13C std) according to the following equation: Δ^13C (‰)=[(^13C tmin−^13C 0min)/^13C std]×1000

Wistar male rat pancreas = test: Model of chronic pancreatitis by oleic acid injection into the pancreatic duct: enzyme contents; type: in vivo
Description: as §1, with “use. After injecting oleic acid into the pancreatic duct and being kept for 3 weeks, these rats (oleic acid-injected rats) were subjected to measurement of amylase in the blood, and to quantitative determination of chymotrypsinogen and amylase contents in the pancreas (FIG. 1). An extraction buffer (20 mM HEPPS+Na, pH 8.0, 100 mM KCl, 0.5% (w/v) Triton X-100) was added to the removed pancreas to the total volume of 10 ml. The material was subjected to ultrasonic disruption (Bionic 7250, Seiko, Sonics & Materials) and centrifuged at 10,000×g for 20 minutes to yield a pancreatic extract as a supernatant. […] After the reaction, 10 μl of 100% (W/V) TCA solution was added and centrifuged at 15,000×g for 5 minutes and the PABA in the supernatant was quantitatively determined using a PABA measuring kit (Eisai). The amylase activity in the pancreatic extract was measured using Fuji Dri-Chem. Both units of activity (U) show μ mole release/min.” for “use.”

[2] = target: T1, chymotrypsin (from bovine pancreas) (Bos taurus, UniProt P00766); test: Degradation by chymotrypsin (leucine released, ninhydrin reaction); type: biochemical
T1 construct: purchased Worthington Biochemical Corporation #1432, Lot 37A906; host or cells: bovine pancreas (natural source)
Description: Bz-DL-Phe-(^13C-Leu) was reacted with chymotrypsin and the degradation product, leucine, generated upon action of chymotrypsin was quantitatively determined by ninhydrin reaction. The reaction was carried out in 20 mM HEPPS-Na (pH 8.0), 23 mM Bz-DL-Phe-(^13C-Leu), 0.16 mg/ml chymotrypsin (from bovine pancreas, Worthington Biochemical Corporation, #1432, Lot 37A906) at 37° C. for 15 minutes. After reaction, 50 μl of citrate buffer (citric acid monohydrate), 20 μl of ninhydrin solution (50 mg/ml solution in methyl cellosolve) and 100 μl of KCN solution (0.01 M aqueous KCN solution diluted 50 times with methyl cellosolve) were added to 100 μl of the reaction mixture and heated at 100° C. for 15 minutes. After cooling the ninhydrin reaction mixture to room temperature, 150 μl of 60% (V/V) ethanol was added to 100 μl of the ninhydrin reaction mixture and stirred followed by determination of an absorbance at a wave length of 570 nm. An experiment wherein all the reactions that were carried out without adding Bz-DL-Phe-(^13C-Leu) was taken as a “blank,” and leucine was used as a standard.

[3] = chronic pancreatitis rats #1-#4, 250 mg/kg oral
[4] = chronic pancreatitis rats (n=4), 250 mg/kg oral
[5] = normal rats #1-#4, 250 mg/kg oral
[6] = normal rats (n=4), 250 mg/kg oral
[7] = oleic acid-injected rats (n=17), 50 μl into pancreatic duct, 3 weeks after

Bz-Ala-Ala-Ala-Ala-(^13C-Gly)-Phe-Leu ({Bz′}-AAAA-{13C‑Gly-Phe-Leu})
Δ^13C (‰) at 15 min, individual rat ([1]; chronic pancreatitis rats #1-#2, 420 mg/kg oral): −1.90 ‰ and 3.12 ‰
Δ^13C (‰) (mean) value at 15 minutes after the administration ([1]; chronic pancreatitis rats (n=2)): 0.61 ‰
Δ^13C (‰) at 15 min, individual rat ([1]; normal rats #1-#2, 420 mg/kg oral): 23.47 ‰ and 43.16 ‰
Δ^13C (‰) (mean) value at 15 minutes after the administration ([1]; normal rats (n=2)): 33.32 ‰

Bz-Tyr-(^13C-Leu)
Δ^13C (‰) at 20 min, individual rat [1, 3]: 8.76 ‰ and 3.58 ‰ and 2.44 ‰ and −0.15 ‰
Δ^13C (‰) value at 20 minutes after the administration (group mean) [1, 4]: 3.66±3.24 ‰
Δ^13C (‰) at 20 min, individual rat [1, 5]: 65.76 ‰ and 21.02 ‰ and 80.02 ‰ and 111.32 ‰
Δ^13C (‰) value at 20 minutes after the administration (group mean) [1, 6]: 69.53±32.50 ‰

CCCCCCCC/C=C\CCCCCCCC(=O)O [oleic acid]
rats evaluated to have pancreatitis (chymotrypsinogen content below mean−2SD of control) (Wistar male rat pancreas; 12 rats among 17 oleic acid-injected rats): 70%
blood amylase concentration (Wistar male rat pancreas; oleic acid-injected rats (n=17), 3 weeks after): 2137 U
amylase content in the pancreas (Wistar male rat pancreas; [7]): 789 U
chymotrypsinogen content in the pancreas (Wistar male rat pancreas; [7]): 8.1 U

Bz-L-Phe-(^13C-Leu)
Δ^13C (‰) at 10 min, individual rat [1, 3]: 1.61 ‰ and 3.28 ‰ and 17.21 ‰ and 5.77 ‰
Δ^13C (‰) value at 10 minutes after the administration (group mean) [1, 4]: 6.97±6.09 ‰
Δ^13C (‰) at 10 min, individual rat [1, 5]: 60.25 ‰ and 165.37 ‰ and 203.16 ‰ and 31.29 ‰
Δ^13C (‰) value at 10 minutes after the administration (group mean) [1, 6]: 115.02±71.26 ‰

Bz-DL-Phe-(^13C-Leu)
rate of degradation ([2]; 23 mM substrate, 0.16 mg/ml chymotrypsin, 20 mM HEPPS-Na pH 8.0, 37° C., 15 minutes): 1.72 nmole/mg chymotrypsin/min
substrate for chymotrypsin ([2]; same reaction, leucine produced): could be a substrate for chymotrypsin
time course of Δ^13C (‰) ([1]; 7 cases of the chronic pancreatitis rats (n=8), 250 mg/kg oral): the degree of increase was small and continued to slowly increase for 30 minutes

Bz-Arg-(^13C-Leu).HCl
Δ^13C (‰) at 20 min, individual rat ([1]; chronic pancreatitis rats #1-#3, 100 mg/kg oral): 3.69 ‰ and 11.25 ‰ and −5.79 ‰
Δ^13C (‰) value at 20 minutes after the administration (group mean) ([1]; chronic pancreatitis rats (n=3), 100 mg/kg oral): 3.05±6.97 ‰
Δ^13C (‰) at 20 min, individual rat ([1]; normal rats #1-#3, 100 mg/kg oral): 79.91 ‰ and 51.94 ‰ and 74.46 ‰
Δ^13C (‰) value at 20 minutes after the administration (group mean) ([1]; normal rats (n=3), 100 mg/kg oral): 68.77±12.01 ‰

Arg-(^13C-Leu)
Δ^13C (‰) at 30 min, individual rat ([1]; chronic pancreatitis rats #1-#4, 30 mg/kg oral): 3.74 ‰ and 6.97 ‰ and 4.87 ‰ and 1.92 ‰
Δ^13C (‰) value at 30 minutes after the administration (group mean) ([1]; chronic pancreatitis rats (n=4)): 4.37±1.83 ‰
Δ^13C (‰) at 30 min, individual rat ([1]; normal rats #1-#4, 30 mg/kg oral): 13.74 ‰ and 15.37 ‰ and 10.08 ‰ and 10.30 ‰
Δ^13C (‰) value at 30 minutes after the administration (group mean) ([1]; normal rats (n=4)): 12.37±2.26 ‰
